# Assay results taken from ChEMBL document CHEMBL3885881, “DrugMatrix”.
# Species: Rattus norvegicus
# Assay: DrugMatrix - Regimen: Daily Repeat
# Assay type: toxicity, organism-based, Sprague-Dawley
# Design: regimen Daily Repeat, gender Male, age 6-8 weeks
# Settings: in vivo, po, route oral GAVAGE, […]; for ABSOLUTE BASOPHIL / ABSOLUTE EOSINOPHIL / ABSOLUTE LYMPHOCYTE / ABSOLUTE MONOCYTE / ABSOLUTE SEGMENTED NEUTROPHIL / BASOPHIL / EOSINOPHIL / ERYTHROCYTE COUNT / HEMATOCRIT / HEMOGLOBIN / LEUKOCYTE COUNT / LYMPHOCYTE / MEAN CORPUSCULAR HEMOGLOBIN / MEAN CORPUSCULAR HEMOGLOBIN CONCENTRATION / MEAN CORPUSCULAR VOLUME / MONOCYTE / NEUTROPHIL / NUCLEATED RED BLOOD CELLS / PLATELET COUNT: tissue Blood; for ALANINE AMINOTRANSFERASE / ALBUMIN / ALKALINE PHOSPHATASE / ASPARTATE AMINOTRANSFERASE / BLOOD UREA NITROGEN / CARBON DIOXIDE / CHLORIDE / CHOLESTEROL / CREATINE PHOSPHOKINASE / CREATININE / GLUCOSE / LACTATE DEHYDROGENASE / LIPASE / PHOSPHORUS / POTASSIUM / SODIUM / TOTAL BILIRUBIN / TOTAL PROTEIN / URIC ACID: tissue Plasma
# [1] = 0 mg/kg, 72 h, dose level Control, time 3 day
# [2] = 0 mg/kg, 120 h, dose level Control, time 5 day
# [3] = 12 mg/kg, 72 h, dose level Low, time 3 day
smiles,measurement,setting,value
COc1ncnc(NS(=O)(=O)c2ccc(N)cc2)c1OC [SULFADOXINE],ABSOLUTE BASOPHIL,[1],0 CELLS/uL
same,ABSOLUTE EOSINOPHIL,[1],41.83 CELLS/uL
same,ABSOLUTE LYMPHOCYTE,[1],8545.5 CELLS/uL
same,ABSOLUTE MONOCYTE,[1],240 CELLS/uL
same,ABSOLUTE SEGMENTED NEUTROPHIL,[1],906 CELLS/uL
same,BASOPHIL,[1],0%
same,EOSINOPHIL,[1],0.33%
same,ERYTHROCYTE COUNT,[1],5.6 x10E6/uL
same,HEMATOCRIT,[1],35.4%
same,HEMOGLOBIN,[1],13.42 G/DL
same,LEUKOCYTE COUNT,[1],9.73 x10E3/uL
same,LYMPHOCYTE,[1],87.83%
same,MEAN CORPUSCULAR HEMOGLOBIN,[1],23.98 pg
same,MEAN CORPUSCULAR HEMOGLOBIN CONCENTRATION,[1],37.92 G/DL
same,MEAN CORPUSCULAR VOLUME,[1],63.3 fL
same,MONOCYTE,[1],2.5%
same,NEUTROPHIL,[1],9.33%
same,NUCLEATED RED BLOOD CELLS,[1],0 /100WBC
same,PLATELET COUNT,[1],1032 x10E3/uL
same,ALANINE AMINOTRANSFERASE,[1],72.83 u/L
same,ALBUMIN,[1],4 G/DL
same,ALKALINE PHOSPHATASE,[1],322.83 u/L
same,ASPARTATE AMINOTRANSFERASE,[1],102.67 u/L
same,BLOOD UREA NITROGEN,[1],12 mg/dL
same,CARBON DIOXIDE,[1],34.33 mmol/L
same,CHLORIDE,[1],97.67 MEQ/L
same,CHOLESTEROL,[1],82.5 mg/dL
same,CREATINE PHOSPHOKINASE,[1],410.33 u/L
same,CREATININE,[1],0.18 mg/dL
same,GLUCOSE,[1],164.5 mg/dL
same,LACTATE DEHYDROGENASE,[1],119.5 u/L
same,LIPASE,[1],11.83 u/L
same,PHOSPHORUS,[1],9.52 mg/dL
same,POTASSIUM,[1],5.56 MEQ/L
same,SODIUM,[1],142.48 MEQ/L
same,TOTAL BILIRUBIN,[1],0.18 mg/dL
same,TOTAL PROTEIN,[1],5.77 G/DL
same,URIC ACID,[1],0.48 mg/dL
same,ABSOLUTE BASOPHIL,[2],0 CELLS/uL
same,ABSOLUTE EOSINOPHIL,[2],0 CELLS/uL
same,ABSOLUTE LYMPHOCYTE,[2],9065 CELLS/uL
same,ABSOLUTE MONOCYTE,[2],341.33 CELLS/uL
same,ABSOLUTE SEGMENTED NEUTROPHIL,[2],527 CELLS/uL
same,BASOPHIL,[2],0%
same,EOSINOPHIL,[2],0%
same,ERYTHROCYTE COUNT,[2],5.25 x10E6/uL
same,HEMATOCRIT,[2],34.08%
same,HEMOGLOBIN,[2],13.5 G/DL
same,LEUKOCYTE COUNT,[2],9.93 x10E3/uL
same,LYMPHOCYTE,[2],91.17%
same,MEAN CORPUSCULAR HEMOGLOBIN,[2],25.7 pg
same,MEAN CORPUSCULAR HEMOGLOBIN CONCENTRATION,[2],39.62 G/DL
same,MEAN CORPUSCULAR VOLUME,[2],64.93 fL
same,MONOCYTE,[2],3.33%
same,NEUTROPHIL,[2],5.5%
same,NUCLEATED RED BLOOD CELLS,[2],0 /100WBC
same,PLATELET COUNT,[2],1077.5 x10E3/uL
same,ALANINE AMINOTRANSFERASE,[2],57.83 u/L
same,ALBUMIN,[2],4.07 G/DL
same,ALKALINE PHOSPHATASE,[2],319.17 u/L
same,ASPARTATE AMINOTRANSFERASE,[2],83.33 u/L
same,BLOOD UREA NITROGEN,[2],13.67 mg/dL
same,CARBON DIOXIDE,[2],30.83 mmol/L
same,CHLORIDE,[2],98.33 MEQ/L
same,CHOLESTEROL,[2],64.83 mg/dL
same,CREATINE PHOSPHOKINASE,[2],263.67 u/L
same,CREATININE,[2],0.2 mg/dL
same,GLUCOSE,[2],182.83 mg/dL
same,LACTATE DEHYDROGENASE,[2],124 u/L
same,LIPASE,[2],10.5 u/L
same,PHOSPHORUS,[2],10 mg/dL
same,POTASSIUM,[2],5.78 MEQ/L
same,SODIUM,[2],142.48 MEQ/L
same,TOTAL BILIRUBIN,[2],0.2 mg/dL
same,TOTAL PROTEIN,[2],6 G/DL
same,URIC ACID,[2],0.7 mg/dL
same,ABSOLUTE BASOPHIL,[3],0 CELLS/uL
same,ABSOLUTE EOSINOPHIL,[3],0 CELLS/uL
same,ABSOLUTE LYMPHOCYTE,[3],9669.67 CELLS/uL
same,ABSOLUTE MONOCYTE,[3],359.33 CELLS/uL
same,ABSOLUTE SEGMENTED NEUTROPHIL,[3],937.67 CELLS/uL
same,BASOPHIL,[3],0%
same,EOSINOPHIL,[3],0%
same,ERYTHROCYTE COUNT,[3],5.36 x10E6/uL
same,HEMATOCRIT,[3],34.67%
same,HEMOGLOBIN,[3],13.5 G/DL
same,LEUKOCYTE COUNT,[3],10.97 x10E3/uL
same,LYMPHOCYTE,[3],88.33%
same,MEAN CORPUSCULAR HEMOGLOBIN,[3],25.23 pg
same,MEAN CORPUSCULAR HEMOGLOBIN CONCENTRATION,[3],38.97 G/DL
same,MEAN CORPUSCULAR VOLUME,[3],64.87 fL
same,MONOCYTE,[3],2.67%
same,NEUTROPHIL,[3],9%
same,NUCLEATED RED BLOOD CELLS,[3],0 /100WBC
same,PLATELET COUNT,[3],1062.67 x10E3/uL
same,ALANINE AMINOTRANSFERASE,[3],67.67 u/L
same,ALBUMIN,[3],4 G/DL
same,ALKALINE PHOSPHATASE,[3],358.33 u/L
same,ASPARTATE AMINOTRANSFERASE,[3],91.33 u/L
same,BLOOD UREA NITROGEN,[3],12.67 mg/dL
same,CARBON DIOXIDE,[3],32.33 mmol/L
same,CHLORIDE,[3],98.33 MEQ/L
same,CHOLESTEROL,[3],76.33 mg/dL
same,CREATINE PHOSPHOKINASE,[3],340.67 u/L
same,CREATININE,[3],0.29 mg/dL
same,GLUCOSE,[3],154.67 mg/dL
same,LACTATE DEHYDROGENASE,[3],166 u/L
same,LIPASE,[3],10.67 u/L
same,PHOSPHORUS,[3],10.17 mg/dL
same,POTASSIUM,[3],5.55 MEQ/L
same,SODIUM,[3],143.6 MEQ/L
same,TOTAL BILIRUBIN,[3],0.23 mg/dL
same,TOTAL PROTEIN,[3],5.77 G/DL
same,URIC ACID,[3],0.33 mg/dL
